In patent publication US20230094404A1, “METHOD FOR PREPARATION OF HETEROCYCLICAMINE DERIVATIVES” (Daewoong Pharmaceutical Co., Ltd., priority 2020, published 2023):

Tests used:
ITK = target: T1, ITK (Homo sapiens, UniProt Q08881); assay: ADP-Glo ITK Kinase enzyme system inhibitory activity; format: biochemical; settings: ADP-Glo kit (Promega), ATP 25 uM, duplicate; read-out: inhibitory activity against ITK (ITK IC50)
T1 construct: purchased Promega Corporation
T1 sequence (Q08881 1-620): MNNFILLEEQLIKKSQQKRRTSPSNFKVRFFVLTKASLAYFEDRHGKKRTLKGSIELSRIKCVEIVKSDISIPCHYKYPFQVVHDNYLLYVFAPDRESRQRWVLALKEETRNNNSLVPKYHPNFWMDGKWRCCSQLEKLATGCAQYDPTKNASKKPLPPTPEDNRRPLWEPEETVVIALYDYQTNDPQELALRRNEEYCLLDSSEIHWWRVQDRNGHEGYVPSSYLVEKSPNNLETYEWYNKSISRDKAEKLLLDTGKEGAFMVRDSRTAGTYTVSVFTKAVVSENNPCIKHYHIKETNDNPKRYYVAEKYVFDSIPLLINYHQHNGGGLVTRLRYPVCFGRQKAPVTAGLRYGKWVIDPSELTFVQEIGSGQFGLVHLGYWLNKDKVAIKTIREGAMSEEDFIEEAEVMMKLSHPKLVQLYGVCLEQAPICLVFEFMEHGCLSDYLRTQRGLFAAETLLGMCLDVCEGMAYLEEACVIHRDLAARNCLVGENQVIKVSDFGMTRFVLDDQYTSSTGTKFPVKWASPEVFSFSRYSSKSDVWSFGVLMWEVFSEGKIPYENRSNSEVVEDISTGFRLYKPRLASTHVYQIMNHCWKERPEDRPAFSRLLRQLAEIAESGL
Experimental: (§1) Inhibitory activities against BTK and ITK were measured for the compound represented by Chemical Formula 1 prepared in the above Examples as follows.
In addition, the inhibitory activity against ITK was evaluated using ‘ADP-GIo™+ITK Kinase enzyme system’ kit (Promega Corporation). In a white 96-well plate, 10 ? of ITK enzyme prepared so as to have a final concentration of 4 ng/ ? was mixed with 5 ? of compounds having a final concentration of 1 uM in the case of evaluating a single concentration of compound and a concentration of 1000, 200, 40, 8, 1.6 and 0.32 nM in the case of IC50 evaluation, and then reacted at room temperature for 15 minutes. To the plate on which reactions were completed, 5 ul of substrate and 5 ? of ATP prepared so as to have a final concentration of 25 uM were added and then allowed to react at 30° C. for 1 hour. All wells of the plate on which reactions were completed were treated with 25 ? of ADP-Glo™ reagent and then allowed to react at 30° C. for 40 minutes. […] For the plate on which all reactions were completed, luminescence was measured and the results were calculated. Evaluation was carried out in duplicate, and negative control and positive control were calculated depending on whether or not the enzyme was added without treatment of the compound. The IC50 was calculated based on the calculated values.

BTK = target: T2, BTK (Homo sapiens, UniProt Q06187); assay: ADP-Glo BTK Kinase enzyme system inhibitory activity; format: biochemical; settings: ADP-Glo kit (Promega), ATP 10 uM, duplicate; read-out: inhibitory activity against BTK (BTK IC50)
T2 construct: purchased Promega Corporation
T2 sequence (Q06187 whole entry): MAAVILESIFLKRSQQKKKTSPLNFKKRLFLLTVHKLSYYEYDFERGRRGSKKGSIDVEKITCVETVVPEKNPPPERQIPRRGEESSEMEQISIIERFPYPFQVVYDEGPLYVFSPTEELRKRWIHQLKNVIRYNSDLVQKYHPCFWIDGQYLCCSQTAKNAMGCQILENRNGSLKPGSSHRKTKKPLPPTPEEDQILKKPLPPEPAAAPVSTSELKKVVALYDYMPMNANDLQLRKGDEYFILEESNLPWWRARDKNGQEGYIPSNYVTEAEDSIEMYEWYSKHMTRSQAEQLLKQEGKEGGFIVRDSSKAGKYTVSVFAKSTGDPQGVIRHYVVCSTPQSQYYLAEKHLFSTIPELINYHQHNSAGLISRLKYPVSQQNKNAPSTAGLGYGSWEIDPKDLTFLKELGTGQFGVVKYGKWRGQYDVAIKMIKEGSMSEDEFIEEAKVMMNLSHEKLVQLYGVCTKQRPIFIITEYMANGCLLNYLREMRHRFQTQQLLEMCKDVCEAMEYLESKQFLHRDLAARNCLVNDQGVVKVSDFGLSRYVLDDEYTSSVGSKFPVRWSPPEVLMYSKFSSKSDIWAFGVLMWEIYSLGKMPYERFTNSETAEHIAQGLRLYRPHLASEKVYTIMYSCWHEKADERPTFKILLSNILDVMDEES
Experimental: as §1
The inhibitory activities against BTK were evaluated using ‘ADP-GIo™+BTK Kinase enzyme system’ kit (Promega Corporation). In a white 96-well plate, 10 ? of BTK enzyme prepared so as to have a final concentration of 10 ng/ ? was mixed with 5 ? of compounds having a final concentration of 1 uM in the case of evaluating a single concentration of compound and a concentration of 1000, 200, 40, 8, 1.6 and 0.32 nM in the case of IC50 evaluation, and then reacted at room temperature for 15 minutes. 5 ? of substrate and 5 ? of ATP prepared so as to have a final concentration of 10 uM were added to the plate on which reactions were completed, and then allowed to react at 30° C. for 1 hour. All wells of the plate on which reactions were completed were treated with 25 ? of ADP-Glo™ reagent and allowed to react at 30° C. for 40 minutes. […] For the plate on which all reactions were completed, luminescence was measured and the results were calculated. Evaluation was carried out in duplicate, and negative control and positive control were calculated depending on whether or not the enzyme was added without treatment of the compound. The IC50 was calculated based on the calculated values.

IC50 (ITK): 1 to 1.7 nM
IC50 (BTK): 0.4 to 1.4 nM
Structure (SMILES): C=CC(=O)N1CCC[C@H](Nc2cc(CN3CCOCC3)cc(Nc3ncc(C)s3)n2)C1 [Chemical Formula 1, (S)-1-(3-((6-((5-methylthiazol-2-yl)amino)-4-(morpholinomethyl)pyridin-2-yl)amino)piperidin-1-yl)prop-2-en-1-one]
